Data published in publication PMC8235214, “Purification, Identification, Activity Evaluation, and Stability of Antioxidant Peptides from Alcalase Hydrolysate of Antarctic Krill (Euphausia superba) Proteins” (Marine Drugs, 2021).
Where two headings read alike, the source gives them in different places. Values belong to the compound of their own block, whether it stands above or below them. Ends that are not written are not given here. Peptide text beside a SMILES is read from it.

Tests used:
[1] = set-up: method as in 6 sources, ref 36 = [36]; PMID 23411302; doi:10.1016/j.foodchem.2012.12.002; 36. Wang B. Li L. Chi C.F. Ma J.H. Luo H.Y. Xu Y.F. Purification and Characterization of a novel antioxidant peptide derived from blue mussel ( Mytilus edulis ) protein hydrolysate Food Chem. 2013 138 ||| ref 45 = [45]; doi:10.1016/j.foodres.2010.02.009; 45. You L. Zhao M. Regenstein J.M. Ren J. Purification and identification of antioxidative peptides from loach ( Misgurnus anguillicaudatus ) protein hydrolysate by consecutive chromatography and elec ||| ref 46 = [46]; PMID 22652579; doi:10.1016/j.peptides.2012.05.013; 46. Wang B. Li Z.R. Chi C.F. Zhang Q.H. Luo H.Y. Preparation and evaluation of antioxidant peptides from ethanol-soluble proteins hydrolysate of Sphyrna lewini muscle Peptides 2012 36 240 250 10.1016/ ||| ref 49 = [49]; PMID 31058809; doi:10.3390/md17050263; 49. Pan X.Y. Wang Y.M. Li L. Chi C.F. Wang B. Four antioxidant peptides from protein hydrolysate of red stingray ( Dasyatis akajei ) cartilages: Isolation, identification, and in vitro activity evalua ||| ref 22 = [22]; PMID 32164197; doi:10.3390/md18030153; 22. Hu X.M. Wang Y.M. Zhao Y.Q. Chi C.F. Wang B. Antioxidant peptides from the protein hydrolysate of monkfish ( Lophius litulon ) muscle: Purification, identification, and cytoprotective function on ||| ...; conditions: cited from earlier work
[2] = cited from earlier work
From the text: However, no significant difference was found among the EC50 values of ESP6, ESP7, and ESP8 (p > 0.05).

[3] = cited from earlier work; for Stability under thermal and pH treatments: 25–100 °C or pH 3–11 treatments; for Stability under thermal and pH treatments (HO· scavenging activity): high temperature (>60 °C) and strong acid and alkali conditions
From the text: The pH and thermal stability of antioxidant peptides are key properties for their applications in food and health products, and tolerance property on simulated GI digestion treatments can help to assess the rate of metabolism and timeliness of antioxidant peptides in vivo [25, 52, 68, 69].

[4] = cited from earlier work; remark: listed apart in the source
From the text: In the organism, HO· can oxidize and damage most of the macromolecules due to its high reactivity characteristic. Therefore, looking for natural antioxidant peptides with high HO· scavenging ability is key for discovering new antioxidants. […] In addition, EC50 values of ESP6, ESP7, and ESP8 were also lower ...

[5] = Simulated GI digestion stability (pepsin then pancreatin, DPPH· scavenging read-out); type: in vitro ADME; conditions: peptide 1.0 mg/mL; two-stage model, pepsin 120 min then pancreatin 60 min (0 to 180 min); mean ± SD, n = 3
Description: The influence of simulate GI digestion on the stability of ESP6, ESP7, and ESP8 was evaluated by the two-stage digestion model. In short, ESP6, ESP7, and ESP8 were separately treated with pepsin for 120 min and pancreatin for 60 min.
The DPPH· scavenging ratio (%) of ESP6, ESP7, and ESP8 at 1.0 mg/mL were measured at the set time to analyze their stability.

[6] = peptides from Mytilus edulis and scales of croceine croaker
[7] = peptides from Sphyrna lewini muscle
[8] = peptides from swim bladders of miiuy croaker
[9] = peptides from miiuy croaker swim bladders
[10] = peptides from giant squid protein
[11] = peptides from red stingray cartilages
[12] = peptides from skipjack tuna heads
[13] = peptides from Raja porosa cartilage

Compound: Gly-Phe-Pro-Ser-Gly [GFPSG, antioxidant peptide from scales of croceine croaker]
EC50 on DPPH· [1, 6]: 283 µg/mL

Compound: Met-Glu-Pro-Val-Trp [MEPVW, antioxidant peptide from monkfish muscle]
EC50 on DPPH· ([1]; peptides from monkfish muscle): 620 µg/mL
EC50 on O2−· ([2]; peptide from monkfish muscle): 940 µg/mL

Compound: ATSHH
Stability under thermal and pH treatments (DPPH· scavenging activity) ([3]; 50–90 °C and strong acids and bases): will decrease its partial DPPH· scavenging activity

Compound: Pro-Tyr-Phe-Asn-Lys [PYFNK, antioxidant peptide from Sphyrna lewini muscle]
EC50 on DPPH· [1, 7]: 4110 µg/mL
EC50 on O2−· [2, 7]: 110 µg/mL
EC50 on HO· [4, 7]: 240 µg/mL

Compound: Phe-Thr-Gly-Met-Asp [FTGMD, antioxidant peptide from miiuy croaker swim bladders]
EC50 on O2−· [2, 8]: 3040 ± 270 µg/mL
EC50 on HO· [4, 9]: 2310 ± 120 µg/mL

Compound: Val-Pro-Asp-Asp [VPDD, antioxidant peptide from miiuy croaker swim bladders]
EC50 on HO· [4, 9]: 2850 ± 190 µg/mL

Compound: Trp-Asp-Arg [WDR, antioxidant peptide from Sphyrna lewini muscle]
EC50 on DPPH· [1, 7]: 3630 µg/mL
EC50 on O2−· [2, 7]: 90 µg/mL
EC50 on HO· [4, 7]: 150 µg/mL

Compound: FDSGPAGVL [FDSGPAGVL, antioxidant peptide from giant squid protein]
EC50 on HO· [4, 10]: 78 µg/mL

Compound: Leu-Glu-Glu-Glu-Glu [LEEEE, antioxidant peptide from red stingray cartilages]
EC50 on DPPH· [1, 11]: 3690 µg/mL

Compound: Gly-Phe-Tyr-Ala-Ala [GFYAA, antioxidant peptide from miiuy croaker swim bladders]
EC50 on O2−· [2, 8]: 3030 ± 190 µg/mL
EC50 on HO· [4, 9]: 2350 ± 220 µg/mL

Decrease of DPPH· scavenging ratio by simulated GI digestion [5]: 6.41 ± 0.96%
Compound: CC(C)C[C@H](NC(=O)[C@@H](N)CO)C(=O)N1CCC[C@H]1C(=O)N[C@@H](Cc1ccc(O)cc1)C(=O)O [ESP6, Ser-Leu-Pro-Tyr] (H-SLPY-OH)

Compound: WAFAPA
Stability under thermal and pH treatments [3]: high stability

Compound: Val-Pro-Arg [VPR]
EC50 on DPPH· [1, 11]: 4610 µg/mL

Compound: VPDDD [antioxidant peptide from swim bladders of miiuy croaker]
EC50 on O2−· [2, 8]: 4110 ± 310 µg/mL

Compound: Ile-Glu-Glu-Glu-Gln [IEEEQ, antioxidant peptide from red stingray cartilages]
EC50 on DPPH· [1, 11]: 4010 µg/mL

Compound: Tyr-Leu-Pro-Tyr-Ala [YLPYA, antioxidant peptide from swim bladders of miiuy croaker]
EC50 on O2−· [2, 8]: 3610 ± 250 µg/mL

Compound: Gly-Ile-Glu-Trp-Ala [GIEWA, antioxidant peptide from miiuy croaker swim bladders]
EC50 on DPPH· [1, 9]: 780 ± 50 µg/mL

Compound: Tyr-Trp-Asp-Ala-Trp [YWDAW, antioxidant peptide from monkfish muscle]
EC50 on DPPH· ([1]; peptides from monkfish muscle): 510 µg/mL

Compound: Glu-Met-Gly-Pro-Ala [EMGPA, antioxidant peptide from skipjack tuna heads]
Stability under thermal and pH treatments (HO· scavenging activity) [3]: significantly influenced
EC50 on O2−· [2, 12]: 710 µg/mL

Compound: NGPLQAGQPGER [NGPLQAGQPGER, antioxidant peptide from giant squid protein]
EC50 on HO· [4, 10]: 123 µg/mL

Compound: IVAGPQ [IVAGPQ, antioxidant peptide from skate (Raja porosa) cartilages]
EC50 on O2−· [2, 13]: 1820 µg/mL
EC50 on HO· ([4]; peptide from skate cartilages): 5030 µg/mL

Compound: MYPGLA
Stability under thermal and pH treatments [3]: high stability

Decrease of DPPH· scavenging ratio by simulated GI digestion [5]: 8.36 ± 0.59%
Compound: CSCC[C@H](NC(=O)[C@@H]1CCCN1C(=O)[C@@H]1CCCN1C(=O)[C@H](Cc1ccc(O)cc1)NC(=O)[C@@H](N)CCC(N)=O)C(=O)N[C@@H](CCC(N)=O)C(=O)N[C@@H](Cc1ccc(O)cc1)C(=O)O [ESP7, Gln-Tyr-Pro-Pro-Met-Gln-Tyr] (H-QYPPMQY-OH)

Compound: Pro-Ser-Tyr-Val [PSYV, antioxidant peptide from weatherfish loach]
EC50 on DPPH· ([1]; peptide from weather loach): 17000 µg/mL
EC50 on HO· ([4]; peptide from weatherfish loach): 2640 µg/mL

Compound: FIMGPY [FIMGPY, antioxidant peptide from Raja porosa cartilage]
EC50 on O2−· [2, 13]: 1610 µg/mL

Compound: GPAGDY [GPAGDY, antioxidant peptide from Raja porosa cartilage]
EC50 on O2−· [2, 13]: 1660 µg/mL

Compound: Met-Ile-Leu-Met-Arg [MILMR, antioxidant peptide from croceine croaker muscle]
EC50 on O2−· ([2]; peptide from croceine croaker muscle): 993 µg/mL

Compound: GPAGPAG [GPAGPAG, antioxidant peptide from scales of croceine croaker]
EC50 on DPPH· [1, 6]: 675 µg/mL

Compound: EDIVCW [EDIVCW, antioxidant peptide from monkfish muscle]
EC50 on DPPH· ([1]; peptides from monkfish muscle): 390 µg/mL

Decrease of DPPH· scavenging ratio by simulated GI digestion [5]: 6.48 ± 1.03%
Compound: C[C@H](NC(=O)[C@H](CCC(=O)O)NC(=O)[C@H](Cc1ccc(O)cc1)NC(=O)[C@@H](N)CCC(=O)O)C(=O)O [ESP8, Glu-Tyr-Glu-Ala] (H-EYEA-OH)

Compound: Tyr-Phe-Leu-Trp-Pro [YFLWP, antioxidant peptide from miiuy croaker muscle]
EC50 on O2−· ([2]; peptide from miiuy croaker muscle): 3080 µg/mL

Compound: Trp-Glu-Gly-Pro-Lys [WEGPK, antioxidant peptide from heads of bluefin leatherjacket]
EC50 on HO· ([4]; peptide from heads of bluefin leatherjacket): 5567 µg/mL

Compound: Phe-Ser-Gly-Leu-Arg [FSGLR, antioxidant peptide from miiuy croaker swim bladders]
EC50 on O2−· [2, 8]: 3350 ± 200 µg/mL
EC50 on HO· [4, 9]: 2450 ± 250 µg/mL

Compound: Tyr-Pro-Pro-Ala-Lys [YPPAK, antioxidant peptide from blue mussel (Mytilus edulis)]
EC50 on DPPH· [1, 6]: 2620 µg/mL
EC50 on O2−· ([2]; peptide from blue mussel): 72 µg/mL
EC50 on HO· ([4]; peptide from blue mussel): 228 µg/mL

Compound: Trp-Met-Phe-Asp-Trp [WMFDW, antioxidant peptide from skipjack tuna heads]
Stability under thermal and pH treatments (HO· scavenging activity) [3]: significantly influenced
EC50 on O2−· [2, 12]: 560 µg/mL

Compound: FPYLRH [FPYLRH, antioxidant peptide from miiuy croaker swim bladders]
EC50 on DPPH· [1, 9]: 510 ± 30 µg/mL
EC50 on HO· [4, 9]: 680 ± 50 µg/mL

Compound: Trp-Met-Gly-Pro-Tyr [WMGPY, antioxidant peptide from skipjack tuna heads]
Stability under thermal and pH treatments (HO· scavenging activity) [3]: significantly influenced
EC50 on O2−· [2, 12]: 380 µg/mL
